The source made the active and inactive calls. No cut-off for these calls is given here.
Experiments:
[1] = Upregulation of Rap1 signaling pathway related genes in hypothalamus of mouse at 2.5 mg/kg, ip measured after 30 mins by KEGG enrichment analysis relative to control; format: functional; details: 0.5 h
[2] = AUC (0 to t) in male Sprague-Dawley rat at 2.5 mg/kg, ip measured after 5 to 1440 mins by LC-MS/MS analysis; format: ADME, organism-based; details: in vivo, time 5-1440 min
Mus musculus [3] = assay: Sedative-hypnotic activity in pentobarbital-induced mouse assessed as increase in sleep duration at 2.5 mg/kg, ip administrated as single dose; format: functional, organism-based
Mus musculus [4] = assay: Sedative-hypnotic activity in pentobarbital-induced mouse assessed as decrease in sleep latency at 0.5 to 2.5 mg/kg, ip administrated as single dose; format: functional, organism-based; details: dose 0.5-2.5 mg/kg
[5] = Upregulation of herpes simplex virus 1 infection related genes in hypothalamus of mouse at 2.5 mg/kg, ip measured after 30 mins by KEGG enrichment analysis relative to control; format: functional; details: 0.5 h
Mus musculus [6] = assay: Upregulation of neurodegeneration-multiple diseases pathways related genes in hypothalamus of mouse at 2.5 mg/kg, ip measured after 30 mins by KEGG enrichment analysis relative to control; format: functional; details: 0.5 h
[7] = Ratio of drug concentration in male mouse brain to plasma at 10 mg/kg, ip measured after 4 hrs by LC-MS/MS analysis; format: ADME, organism-based; details: brain and plasma, read-out: BPR
[8] = Upregulation of Ras signaling pathway related genes in hypothalamus of mouse at 2.5 mg/kg, ip measured after 30 mins by KEGG enrichment analysis relative to control; format: functional; details: 0.5 h
[9] = Drug concentration in male mouse brain at 10 mg/kg, ip measured after 1 hrs by LC-MS/MS analysis; format: ADME, organism-based; details: read-out: Ct
[10] = Upregulation of cAMP signaling pathway related genes in hypothalamus of mouse at 2.5 mg/kg, ip measured after 30 mins by KEGG enrichment analysis relative to control; format: functional; details: 0.5 h
[11] = Half life in male Sprague-Dawley rat at 2.5 mg/kg, ip measured after 5 to 1440 mins by LC-MS/MS analysis; format: ADME, organism-based; details: in vivo, time 5-1440 min
Mus musculus [12] = assay: Upregulation of serotonergic synapse related genes in hypothalamus of mouse at 2.5 mg/kg, ip measured after 30 mins by KEGG enrichment analysis relative to control; format: functional; details: 0.5 h
[13] = Upregulation of cytokine-cytokine receptor interaction related genes in hypothalamus of mouse at 2.5 mg/kg, ip measured after 30 mins by KEGG enrichment analysis relative to control; format: functional; details: 0.5 h
[14] = Apparent volume of distribution in male Sprague-Dawley rat at 2.5 mg/kg, ip measured after 5 to 1440 mins by LC-MS/MS analysis; format: ADME, organism-based; details: in vivo, time 5-1440 min
[15] = Drug concentration in male mouse brain at 10 mg/kg, ip measured after 4 hrs by LC-MS/MS analysis; format: ADME, organism-based; details: read-out: Ct
Mus musculus [16] = assay: Upregulation of glycine metabolism related genes in hypothalamus of mouse at 2.5 mg/kg, ip measured after 30 mins by KEGG enrichment analysis relative to control; format: functional; details: 0.5 h
[17] = Upregulation of human T-cell leukemia virus 1 infection related genes in hypothalamus of mouse at 2.5 mg/kg, ip measured after 30 mins by KEGG enrichment analysis relative to control; format: functional; details: 0.5 h
[18] = Drug concentration in male mouse plasma at 10 mg/kg, ip measured after 4 hrs by LC-MS/MS analysis; format: ADME, organism-based
Mus musculus [19] = assay: Sedative-hypnotic activity in mouse assessed as increase in latency time of first step out of center square at 0.1 to 2.5 mg/kg, ip administrated as single dose and measured after 30 mins by open field test; format: functional, organism-based; details: dose 0.1-2.5 mg/kg
Mus musculus [20] = assay: Sedative-hypnotic activity in mouse assessed as latency time of first step out of center square at 50 mg/kg, ip administrated as single dose and measured after 30 mins by open field test; format: functional, organism-based
[21] = Upregulation of cushing syndrome related genes in hypothalamus of mouse at 2.5 mg/kg, ip measured after 30 mins by KEGG enrichment analysis relative to control; format: functional; details: 0.5 h
Mus musculus [22] = assay: Upregulation of circadian entrainment related genes in hypothalamus of mouse at 2.5 mg/kg, ip measured after 30 mins by KEGG enrichment analysis relative to control; format: functional; details: 0.5 h
Mus musculus [23] = assay: Upregulation of signaling pathways regulating pluripotent stem cells related genes in hypothalamus of mouse at 2.5 mg/kg, ip measured after 30 mins by KEGG enrichment analysis relative to control; format: functional; details: 0.5 h
[24] = Upregulation of FoxO signaling pathway related genes in hypothalamus of mouse at 2.5 mg/kg, ip measured after 30 mins by KEGG enrichment analysis relative to control; format: functional; details: 0.5 h
Mus musculus [25] = assay: Upregulation of parathyroid hormone action related genes in hypothalamus of mouse at 2.5 mg/kg, ip measured after 30 mins by KEGG enrichment analysis relative to control; format: functional; details: 0.5 h
[26] = Upregulation of Wnt signaling pathway related genes in hypothalamus of mouse at 2.5 mg/kg, ip measured after 30 mins by KEGG enrichment analysis relative to control; format: functional; details: 0.5 h
Mus musculus [27] = assay: Upregulation of pancreatic secretion related genes in hypothalamus of mouse at 2.5 mg/kg, ip measured after 30 mins by KEGG enrichment analysis relative to control; format: functional; details: 0.5 h
Mus musculus [28] = assay: Sedative-hypnotic activity in mouse assessed as decrease in number of square crossing at 0.1 to 0.5 mg/kg, ip administrated as single dose and measured within 3 mins by open field test; format: functional, organism-based; details: dose 0.1-0.5 mg/kg
Mus musculus [29] = assay: Sedative-hypnotic activity in mouse assessed as reduction in grip strength score at 50 mg/kg, ip administrated as single dose and measured after 30 mins by grip strength test; format: functional, organism-based
Mus musculus [30] = assay: Upregulation of glycerolipid metabolism related genes in hypothalamus of mouse at 2.5 mg/kg, ip measured after 30 mins by KEGG enrichment analysis relative to control; format: functional; details: 0.5 h
[31] = Drug concentration in male mouse brain at 10 mg/kg, ip measured after 2 hrs by LC-MS/MS analysis; format: ADME, organism-based; details: read-out: Ct
Mus musculus [32] = assay: Upregulation of gap junction related genes in hypothalamus of mouse at 2.5 mg/kg, ip measured after 30 mins by KEGG enrichment analysis relative to control; format: functional; details: 0.5 h
[33] = Bioavailability in male Sprague-Dawley rat at 2.5 mg/kg, ip measured after 5 to 1440 mins by LC-MS/MS analysis; format: ADME, organism-based; details: in vivo, time 5-1440 min
Mus musculus [34] = assay: Sedative-hypnotic activity in mouse assessed as decrease in number of square crossing at 2.5 mg/kg, ip administrated as single dose and measured within 3 mins by open field test; format: functional, organism-based
Mus musculus [35] = assay: In vivo activation of cAMP/PKA/CREB signaling pathway in mouse assessed as increase in cAMP level in hypothalamus at 2.5 mg/kg, ip measured after 30 mins by ELISA analysis; format: functional, organism-based
Mus musculus [36] = assay: Upregulation of parathyroid hormone secretion related genes in hypothalamus of mouse at 2.5 mg/kg, ip measured after 30 mins by KEGG enrichment analysis relative to control; format: functional; details: 0.5 h
Mus musculus [37] = assay: In vivo activation of cAMP/PKA/CREB signaling pathway in mouse assessed as increase in PKA expression in hypothalamus at 2.5 mg/kg, ip measured after 30 mins by Western blot analysis; format: functional, organism-based

## CCn1c2ccccc2c2cc(Nc3ccnc(Nc4ccc(C)c(OC)c4)n3)ccc21
[1]
  Activity: 3.47%
[2]
  AUC(0-t): 3180 ng·h/mL
Mus musculus [3]
  Activity: Active
Mus musculus [4]
  Activity: Active
[5]
  Activity: 5.78%
Mus musculus [6]
  Activity: 5.78%
[7]
  Kp at 4 h: 0.31
[8]
  Activity: 3.47%
[9]
  concentration at 1 h: 15 ng/mL
[10]
  Activity: 4.62%
[11]
  half-life: 4.56 h
Mus musculus [12]
  Activity: 4.05%
[13]
  Activity: 8.09%
[14]
  Vd(app): 5.023 L/kg
[15]
  concentration at 4 h: 20.2 ng/mL
Mus musculus [16]
  Activity: 1.73%
[17]
  Activity: 4.62%
[18]
  concentration at 4 h: 64.7 ng/mL
Mus musculus [19]
  Activity: Active
Mus musculus [20]
  Activity: Active; Significant Effect Observed
[21]
  Activity: 4.05%
Mus musculus [22]
  Activity: 3.47%
Mus musculus [23]
  Activity: 2.89%
[24]
  Activity: 4.62%
Mus musculus [25]
  Activity: 4.05%
[26]
  Activity: 4.05%
Mus musculus [27]
  Activity: 4.05%
Mus musculus [28]
  Activity: Active; No Significant Difference Compared With Control Mouse
Mus musculus [29]
  Activity: Active
Mus musculus [30]
  Activity: 2.31%
[31]
  concentration at 2 h: 23 ng/mL
Mus musculus [32]
  Activity: 2.89%
[33]
  bioavailability: 74.5%
Mus musculus [34]
  Activity: Active
Mus musculus [35]
  Activity: Active
Mus musculus [36]
  Activity: 4.05%
Mus musculus [37]
  Activity: Active

Source: ChEMBL document CHEMBL6121007, “Design, synthesis and evaluation of pyrimidine derivatives as sedative-hypnotic agents” (Eur J Med Chem, 2025)
